Measured values reported in US20220125882A1, “METHODS AND COMPOSITIONS FOR TREATMENT OF CANCER” (Enzychem Lifesciences Corporation, priority 2019, published 2022).
Values joined by “and” are separate entries in the source; they are usually repeats but may differ in a detail not shown here. Equal values may be shown once. “Also recorded” adds a separate entry of the source.

How the values were obtained:
[1] = system: MDA-MB-231 breast cancer cells; test: Wound healing assay (mobility), TAN / G-CSF co-culture; assay type: cell-based; conditions: for mobility of the cancer cells: G-CSF and neutrophil co-stimulation group, with or without PLAG
Experimental: (§1) MDA-MB-231 and HL60 cells were obtained from the American Type Culture Collection (ATCC, Rockville, Md., USA). MDA-MB-231 cells were grown in DMEM medium (WELGENE, Seoul, Korea) containing 10% fetal bovine serum (HyClone, Waltham, Mass., USA), 1% antibiotics (100 mg/l streptomycin, 100 U/ml penicillin), and 0.4% 2-Mercaptoethanol (Sigma Aldrich, St. Louis, Mo., USA). HL60 cells were grown in DMEM medium containing 10% fetal bovine serum and 1% antibiotics (100 mg/l streptomycin, 100 U/ml penicillin). Cells were grown at 37° C. in a 5% CO2 atmosphere. To differentiate HL60 cells into neutrophil-like cells, cells were grown in medium with […] (Sigma Aldrich) for 5 days.
MDA-MB-231 were seeded in 12 well plate with cover glass, and incubated to 100% confluence at well. After the incubation, make the wound cell monolayer on center of well. A treated PLAG and neutrophil and G-CSF co-stimulation for indicate time. After treatment the indicated time and dose at 37° C. in a 5% CO2 atmosphere, the cells were fixed with 3.7% formaldehyde for 20 min and permeabilized with 0.2% Triton X-100 for 20 min and stained with 0.1% Phalloidin-FITC for 40 min. Fluorescence was detected by confocal (Carl Zeiss, Thornwood, N.Y., USA).

[2] = system: MDA-MB-231 breast cancer cells; test: Transwell invasion assay (MTT readout); assay type: cell-based; conditions: for transwell invasion of the cancer cells: G-CSF and neutrophil co-stimulation group, with or without PLAG; for Invasive cell count (MTT assay, % transform): MDA-MB-231, Samples 1-3
Experimental: as §1
Quantitative macrophage chemoattraction assays were performed using a modified Boyden chamber (SPL lifescience, Seoul, Korea) with 8.0-μm pore polycarbonate membrane inserts with matrigel-coated in 24-well plates. The lower chamber was filled with apoptotic neutrophils for chemoattraction. The MDA-MB-231 cells (5×10^4 cells/ml) in serum-free medium were added into the upper chamber and treated with PLAG. The cells were allowed to chemoattraction (Neutrophil co-culture supernatant) for indicate times at 37° C. in a 5% CO2 atmosphere. The non-chemoattracted cells were removed from the upper surface of the membrane by scraping with a cotton swab, and the chemoattracted cells were calculate by MTT assay.

[3] = system: Snail; test: PCR of EMT marker expression in MDA-MB-231: Snail; assay type: cell-based; conditions: for Snail PCR band intensity (relative intensity): MDA-MB-231, Neutrophil co-culture, relative to None = 1, Samples 1-3; for expression level of SNAIL: neutrophil and G-CSF co-stimulation group, with or without PLAG
Experimental: as §1
(§2) Total RNA was extracted using RiboEx (GeneAll biotechnology, Seoul, Korea) according to the manufacturer's instructions, and cDNA was generated using ReverseAids cDNA synthesis kit (Thermo Scientific, Waltham, Mass., USA) according to the manufacturer's instructions. PCR was performed with the following temperature profile: a pre-denaturation step of 10 min at 95° C., followed by 35 cycles of 95° C. for 30 sec, annealing temperature for 30 sec and 72° C. for 30 sec and a final exposure to 72° C. for 10 min. Specific primer sequence for amplification was Table 5.

[4] = system: N-cadherin; test: PCR of EMT marker expression in MDA-MB-231: N-cadherin; assay type: cell-based; conditions: for N-cadherin PCR band intensity (relative intensity): MDA-MB-231, Neutrophil co-culture, relative to None = 1, Samples 1-3; for expression level of NCAD: neutrophil and G-CSF co-stimulation group, with or without PLAG
Experimental: as §1, §2

[5] = system: Vimentin; test: PCR of EMT marker expression in MDA-MB-231: Vimentin; assay type: cell-based; conditions: for Vimentin PCR band intensity (relative intensity): MDA-MB-231, Neutrophil co-culture, relative to None = 1, Samples 1-3; for expression level of Vimentin: neutrophil and G-CSF co-stimulation group, with or without PLAG
Experimental: as §1, §2

[6] = system: TGF-β; test: TGF-β ELISA of cell supernatants; assay type: cell-based; conditions: for TGF-β ELISA (450 nm OD): Samples 1-3; for secretion level of TGF-β: TAN and G-CSF costimulation environment, with or without PLAG
Experimental: as §1
(§3) The levels of cytokine secretion in the cell supernatants or plasma were analyzed using an enzyme-linked immunosorbent assay (ELISA) specifically for cytokines from BD Bioscience according to the manufacturer's protocol. The absorbance was measured at 450 nm using an EMax Endpoint ELISA microplate reader (Molecular Devices Corporation, Sunnyvale, Calif., USA).

[7] = system: IFN-γ; test: IFN-γ ELISA of cell supernatants; assay type: cell-based; conditions: for IFN-γ ELISA (450 nm OD): Samples 1-3; for secretion of IFN-γ: TAN environment, PLAG treatment, or G-CSF co-stimulation vs neutrophil only group
Experimental: as §1, §3

[8] = system: Smad proteins; test: Smad protein activity by Western blotting in MDA-MB-231; assay type: cell-based; conditions: TAN and G-CSF co-stimulation
Experimental: as §1
(§4) MDA-MB-231 cells treated with PLAG and stimulated to induce neutrophil and G-CSF co-stimulation for various times at 37° C. in a 5% CO2 atmosphere were lysed using ice-cold IP lysis buffer (25 mM Tris-HCl pH 7.4, 150 mM NaCl, 1% NP-40, 1 mM EDTA, 5% glycerol). Extracted proteins were incubated with Surebeads Protein G specific antibody bound magnetic beads (Bio-Rad, Hercules, Calif., USA). Beads were washed with PBS with Tween 20 (PBST) and target proteins eluted in 1× sample buffer and analyzed by Western blotting.

[9] = system: SMAD2/3-SMAD4 complex; test: Immunoprecipitation of Smad complex in MDA-MB-231; assay type: cell-based; conditions: TAN and G-CSF co-stimulation
Experimental: as §1, §4

[10] = system: SMAD2/3; test: Confocal immunofluorescence of Smad nucleus translocation in MDA-MB-231; assay type: cell-based; conditions: TAN and G-CSF co-stimulation
Experimental: as §1
MDA-MB-231 cells were seeded in 12 well plate with cover glass, and incubated to 60% confluence at well. After the incubation, treated PLAG and neutrophil and G-CSF co-stimulation for indicate time. After treatment the indicated time at 37° C. in a 5% CO2 atmosphere, the cells were fixed with 3.7% formaldehyde for 20 min and permeabilized with 0.2% Triton X-100 for 20 min for staining. Cells were washed with PBST twice and reacted with specific antibody (SMAD2/3) for over-night at 4° C. Cells were washed with PBST twice and reacted secondary antibody. For nucleus detection, it stained with 1% Hoechst33342 for 20 min. Fluorescence was detected by confocal (Carl Zeiss, Thornwood, N.Y., USA).

[11] = system: 4T1 cell line; test: 4T1 tumor-bearing mouse model: tumor size and weight on Day 8; assay type: in vivo, BALB/c mice; conditions: for % weight Increase: % increase (+) or decrease (−) of tumor weight over body weight compared to control; for Tumor Weight Increase: change of average tumor weight compared to control; for Tumor Weight Average / % weight Average: group average; for Tumor Weight No. 1 / % weight No. 1: individual mouse No. 1; for Tumor Weight No. 1: 4T1 tumor-bearing BALB/c mice; for Tumor Weight No. 2 / % weight No. 2: individual mouse No. 2; for Tumor Weight No. 3 / % weight No. 3: individual mouse No. 3; for Tumor Weight No. 4 / % weight No. 4: individual mouse No. 4; for Tumor Weight No. 5 / % weight No. 5: individual mouse No. 5; for % weight Average / % weight No. 1 / % weight No. 2 / % weight No. 3 / % weight No. 4 / % weight No. 5: tumor weight over body weight
Experimental: On Day 2 and Day 3, the mice were administered 10 mg/kg of gemcitabine twice. On Day 4, 3 μg/mouse of PEG-G-CSF (Pegfilgrastim) was administrated via subcutaneous injection to the mice once. On every day of the study, 50 mg/kg of EC-18 diluted with PBS was administrated orally to the mice. A total of 24 tumor-bearing mice were classified into 5 groups consisting of control group (4 mice, Control), G-CSF administration group (5 mice, PEG-G-CSF), gemcitabine administration group (5 mice, Gemcitabine), G-CSF and gemcitabine co-administration group (5 mice, Gem+PEG), and EC-18 co-administration group (5 mice, Gem+PEG+EC-18), as summarized in Table 1 and FIG. 1A.
On Day 8, all mice were sacrificed and their tumors removed. The size and weight of the tumors were measured.

Molecule | mobility of the cancer cells [1] | transwell invasion of the cancer cells [2] | Invasive cell count (MTT assay, % transform) ([2]; Neutrophil co-culture) | Snail PCR band intensity (relative intensity) [3] | expression level of SNAIL [3] | N-cadherin PCR band intensity (relative intensity) [4] | expression level of NCAD [4] | Vimentin PCR band intensity (relative intensity) [5] | expression level of Vimentin [5] | TGF-β ELISA (450 nm OD) ([6]; Neutrophil co-culture) | secretion level of TGF-β [6] | IFN-γ ELISA (450 nm OD) ([7]; Neutrophil co-culture) | secretion of IFN-γ [7] | % weight Increase [11] | Tumor Weight Increase ([11]; Day 8) | Tumor Weight Average ([11]; Day 8) | Tumor Weight No. 1 ([11]; Day 8) | Tumor Weight No. 2 ([11]; Day 8) | Tumor Weight No. 3 ([11]; Day 8) | Tumor Weight No. 4 ([11]; Day 8) | other results
CCCCC/C=C\C/C=C\CCCCCCCC(=O)OC(COC(C)=O)COC(=O)CCCCCCCCCCCCCCC (stereo not shown) [PLAG, 1-palmitoyl-2-linoleoyl-3-acetylglycerol] | inhibited the cancer cell abnormal-metastasis | inhibited the cancer cell abnormal-metastasis | 212.500% and 235.417% and 216.667% | 0.531 and 0.749 and 0.527 | expression was decreased | 0.723 and 0.747 and 0.732 | expression was decreased | 0.501 and 0.512 and 0.504 | expression was decreased | 0.484 OD and 0.476 OD and 0.474 OD | did not significantly decrease; also recorded: did not change | 0.181 OD and 0.158 OD and 0.164 OD | significantly increased | – | – | – | – | – | – | – | mobility of MDA-MB-231 cells ([1]; neutrophil-stimulated): mobility decreased; Invasive cell count (MTT assay, % transform) ([2]; without neutrophil): 89.583% and 104.167% and 102.083%; transwell invasion of MDA-MB-231 cells ([2]; neutrophil-stimulated culture sup.): invasion of cancer cells is decreased; TGF-β ELISA (450 nm OD) ([6]; without neutrophil): 0.248 OD and 0.287 OD and 0.208 OD; IFN-γ ELISA (450 nm OD) ([7]; without neutrophil): 0.144 OD and 0.149 OD and 0.156 OD; SMAD activity (TGF-β signal pathway) [8]: decreased; formation of the SMAD2/3-SMAD4 complex [9]: decreases; nucleus translocation of SMAD2/3 and SMAD4 [10]: decreased
Nc1ccn([C@@H]2O[C@H](CO)[C@@H](O)C2(F)F)c(=O)n1 [Gemcitabine, gemcitabine, reference compound] | – | – | – | – | – | – | – | – | – | – | – | – | – | −22.6% | −25.0% | 24 ± 12 ×0.01 g | 38 ×0.01 g | 9 ×0.01 g | 32 ×0.01 g | 27 ×0.01 g | tumor weight decreased compared to control ([11]; Day 8): about 25%; Tumor Weight No. 5 ([11]; Day 8): 14 ×0.01 g; % weight Average ([11]; Day 8): 0.97 ± 0.51%; % weight No. 1 ([11]; Day 8): 1.55%; % weight No. 2 ([11]; Day 8): 0.36%; % weight No. 3 ([11]; Day 8): 1.32%; % weight No. 4 ([11]; Day 8): 1.08%; % weight No. 5 ([11]; Day 8): 0.54%
G-CSF: granulocyte colony-stimulating factor used with neutrophils to co-stimulate MDA-MB-231 cells; form not specified (protein, UniProt P09919 31-207, looked up) Granulocyte …: TPLGPASSLPQSFLLKCLEQVRKIQGDGAALQEKLVSECATYKLCHPEELVLLGHSLGIPWAPLSSCPSQALQLAGCLSQLHSGLFLYQGLLQALEGISPELGPTLDTLQLDVADFATTIWQQMEELGMAPALQPTQGAMPAFASAFQRRAGGVLVASHLQSFLEVSYRVLRHLAQP | further increased | further increased | 366.667% and 352.083% and 383.333% | 2.4 and 2.781 and 1.635 | increased | 4.517 and 4.511 and 5.214 | increased | 1.832 and 1.854 and 1.867 | increased | 0.439 OD and 0.446 OD and 0.414 OD | increased | 0.139 OD and 0.102 OD and 0.094 OD | significantly lower | – | – | – | – | – | – | – | –
PEG-G-CSF: pegfilgrastim, a PEGylated form of filgrastim (recombinant human G-CSF) (protein, UniProt P09919 31-207, looked up, PEG, N-terminal methionine) Granulocyte …: TPLGPASSLPQSFLLKCLEQVRKIQGDGAALQEKLVSECATYKLCHPEELVLLGHSLGIPWAPLSSCPSQALQLAGCLSQLHSGLFLYQGLLQALEGISPELGPTLDTLQLDVADFATTIWQQMEELGMAPALQPTQGAMPAFASAFQRRAGGVLVASHLQSFLEVSYRVLRHLAQP | – | – | – | – | – | – | – | – | – | – | – | – | – | +22.7% | +19.4% | 38 ± 11 ×0.01 g | 47 ×0.01 g | 30 ×0.01 g | 53 ×0.01 g | 30 ×0.01 g | tumor weight increased compared to control ([11]; Day 8): about 19.4%; Tumor Weight No. 5 ([11]; Day 8): 31 ×0.01 g; % weight Average ([11]; Day 8): 1.54 ± 0.52%; % weight No. 1 ([11]; Day 8): 2.02%; % weight No. 2 ([11]; Day 8): 1.12%; % weight No. 3 ([11]; Day 8): 2.20%; % weight No. 4 ([11]; Day 8): 1.20%; % weight No. 5 ([11]; Day 8): 1.17%
